Tested on: SEM cells
Experiment: cell viability relative to DMSO control; higher = less cytotoxic
Conditions: 48 h
Procedure, shortened: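 NOMO1 or SEM (500 cells/well) or P12-Ichikawa (1000 cells/well) leukemia cells were adapted for at least four passages in each medium. They were seeded in 1536-well plates (5 μl) and pin-dosed with library compounds in DMSO over an 11-point threefold series, 47 μM to 0.79 nM. CellTiter-Glo One luminescence was read after 48 h at 37°C. Viability is the per-plate percentage relative to DMSO wells, with cell-free wells as background.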

[1] = RPMI 5 mM glucose + 10% FBS, 0.000781 µM
[2] = RPMI 5 mM glucose + 10% FBS, 0.00234 µM
[3] = RPMI 5 mM glucose + 10% FBS, 0.00702 µM
[4] = RPMI 5 mM glucose + 10% FBS, 0.0211 µM
[5] = RPMI 5 mM glucose + 10% FBS, 0.0632 µM
[6] = RPMI 5 mM glucose + 10% FBS, 0.19 µM
[7] = RPMI 5 mM glucose + 10% FBS, 0.569 µM
[8] = RPMI 5 mM glucose + 10% FBS, 1.71 µM
[9] = RPMI 5 mM glucose + 10% FBS, 5.12 µM
[10] = RPMI 5 mM glucose + 10% FBS, 15.4 µM
[11] = RPMI 5 mM glucose + 10% FBS, 46.1 µM
[12] = RPMI 5 mM glucose + 10% dialyzed FBS, 0.000781 µM
[13] = RPMI 5 mM glucose + 10% dialyzed FBS, 0.00234 µM
[14] = RPMI 5 mM glucose + 10% dialyzed FBS, 0.00702 µM
[15] = RPMI 5 mM glucose + 10% dialyzed FBS, 0.0211 µM
[16] = RPMI 5 mM glucose + 10% dialyzed FBS, 0.0632 µM
[17] = RPMI 5 mM glucose + 10% dialyzed FBS, 0.19 µM
[18] = RPMI 5 mM glucose + 10% dialyzed FBS, 0.569 µM
[19] = RPMI 5 mM glucose + 10% dialyzed FBS, 1.71 µM
[20] = RPMI 5 mM glucose + 10% dialyzed FBS, 5.12 µM
[21] = RPMI 5 mM glucose + 10% dialyzed FBS, 15.4 µM
[22] = RPMI 5 mM glucose + 10% dialyzed FBS, 46.1 µM
[23] = HPLM + 10% dialyzed FBS, 0.000781 µM
[24] = HPLM + 10% dialyzed FBS, 0.00234 µM
[25] = HPLM + 10% dialyzed FBS, 0.00702 µM
[26] = HPLM + 10% dialyzed FBS, 0.0211 µM
[27] = HPLM + 10% dialyzed FBS, 0.0632 µM
[28] = HPLM + 10% dialyzed FBS, 0.19 µM
[29] = HPLM + 10% dialyzed FBS, 0.569 µM
[30] = HPLM + 10% dialyzed FBS, 1.71 µM
[31] = HPLM + 10% dialyzed FBS, 5.12 µM
[32] = HPLM + 10% dialyzed FBS, 15.4 µM
[33] = HPLM + 10% dialyzed FBS, 46.1 µM

| SMILES | cell viability [1] [%] | cell viability [2] [%] | cell viability [3] [%] | cell viability [4] [%] | cell viability [5] [%] | cell viability [6] [%] | cell viability [7] [%] | cell viability [8] [%] | cell viability [9] [%] | cell viability [10] [%] | cell viability [11] [%] | cell viability [12] [%] | cell viability [13] [%] | cell viability [14] [%] | cell viability [15] [%] | cell viability [16] [%] | cell viability [17] [%] | cell viability [18] [%] | cell viability [19] [%] | cell viability [20] [%] | cell viability [21] [%] | cell viability [22] [%] | cell viability [23] [%] | cell viability [24] [%] | cell viability [25] [%] | cell viability [26] [%] | cell viability [27] [%] | cell viability [28] [%] | cell viability [29] [%] | cell viability [30] [%] | cell viability [31] [%] | cell viability [32] [%] | cell viability [33] [%] |
| --- | --- | --- | --- | --- | --- | --- | --- | --- | --- | --- | --- | --- | --- | --- | --- | --- | --- | --- | --- | --- | --- | --- | --- | --- | --- | --- | --- | --- | --- | --- | --- | --- | --- |
| Cc1cnc(C(=O)O)c[n+]1[O-] | 77.1 | 88.9 | 81 | 87 | 85.7 | 92.1 | 101 | 87.3 | 99.5 | 87.8 | 72.6 | 121 | 118 | 92.7 | 112 | 135 | 126 | 133 | 128 | 120 | 114 | 99.3 | – | – | – | – | – | – | – | – | – | – | – |
| Nc1cc(C(F)(F)F)c(-c2cc(N3CCOCC3)nc(N3CCOCC3)n2)cn1 | 88.9 | 89.2 | 88.1 | 102 | 90 | 64.2 | 75.6 | 27.4 | 6.68 | 3.92 | 2.34 | 113 | 131 | 121 | 123 | 118 | 91.1 | 74.1 | 37.6 | 14.6 | 5.59 | 3.9 | 118 | 121 | 99 | 113 | 113 | 88.5 | 72.2 | 43.4 | 14 | 6.54 | 5.09 |
| Oc1cccc(-c2nc(N3CCOCC3)c3oc4ncccc4c3n2)c1 | 102 | 102 | 120 | 106 | 93.3 | 77.9 | 58.4 | 60.9 | 8.23 | 6.63 | 4.34 | – | – | – | – | – | – | – | – | – | – | – | 108 | 96.3 | 102 | 99.1 | 92.6 | 80.7 | 54.8 | 54.5 | 61.5 | 57.3 | 5.23 |
| CN(C)CCOc1ccc(-c2nc(-c3ccncc3)c(-c3ccc4c(c3)CC/C4=N\O)[nH]2)cc1 | 107 | 104 | 106 | 124 | 123 | 113 | 126 | 114 | 122 | 109 | 19.6 | 115 | 109 | 111 | 113 | 113 | 119 | 125 | 134 | 119 | 115 | 68.5 | 108 | 111 | 106 | 106 | 110 | 101 | 114 | 117 | 112 | 109 | 24.8 |
| CCN(C(=O)C/1=C(O)/C2=C(C=CC=C2Cl)N(C)C1=O)C3=CC=CC=C3 | 88.2 | 90.7 | 99.6 | 97.6 | 89.5 | 43 | 53.8 | 14.4 | 5.29 | 3.41 | 3.37 | 93.1 | 80.1 | 85.4 | 97.8 | 80.2 | 42.8 | 49.6 | 26.9 | 6.32 | 3.84 | 3.31 | 79.9 | 92.1 | 99.3 | 93.5 | 84.6 | 61.8 | 62 | 25.8 | 9.79 | 3.62 | 3.31 |
| CCOC(=O)c1cncn1[C@H](C)c1ccccc1 | 111 | 110 | 97.4 | 109 | 112 | 114 | 21.6 | 107 | 117 | 108 | 111 | 118 | 116 | 93.8 | 109 | 128 | 102 | 26.4 | 115 | 98.9 | 106 | 97.7 | 101 | 92.8 | 92.6 | 89.6 | 108 | 96.9 | 23.1 | 106 | 113 | 96.2 | 89.8 |
| CC1=C(CC(=O)O)c2cc(F)ccc2/C1=C\c1ccc([S+](C)[O-])cc1 (stereo not given) | 96.6 | 86.7 | 98.5 | 95.8 | 90.3 | 106 | 83.6 | 90.7 | 79.6 | 71.9 | 63.4 | 126 | 118 | 119 | 118 | 130 | 115 | 105 | 107 | 95.9 | 99.8 | 74.3 | 111 | 121 | 130 | 125 | 127 | 125 | 126 | 109 | 108 | 104 | 76.7 |
| CC[C@@]1(O)C(=O)OCC/2=C1/C=C3\N(CC4=CC5=CC(=CC=C5N=C34)O)C2=O | 79.1 | 81.5 | 73 | 70.2 | 22.6 | 11.6 | 9.45 | 6.47 | 5.43 | 3.87 | 4.1 | 99.6 | 112 | 114 | 93.1 | 43 | 17.9 | 13 | 7.18 | 6.51 | 6.28 | 4.96 | 120 | 128 | 120 | 104 | 58.8 | 20.9 | 18.9 | 8.26 | 7.73 | 6.07 | 5.91 |
| CO/C1=C/C(C)=C\[C@@H](C)[C@@H](O)[C@@H](C)C/C(C)=C\C=C/[C@H](OC)[C@@H]([C@@H](C)[C@@H](O)[C@H](C)[C@@]2(O)C[C@@H](O)[C@H](C)[C@@H](C(C)C)O2)OC1=O | 80.9 | 75 | 88.1 | 46.8 | 29.2 | 26.2 | 24.6 | 29.9 | 31.8 | 32.8 | 31.8 | 81.3 | 79.9 | 87.8 | 38.1 | 27.3 | 27.8 | 29.6 | 30.1 | 26.2 | 29.7 | 30.3 | 91 | 74.8 | 91 | 48.6 | 28.7 | 27 | 27 | 25.2 | 32 | 29 | 29.7 |
| COC1=C2C[C@@H](C)C[C@H](OC)[C@H](O)[C@@H](C)/C=C(\C)[C@H](OC(N)=O)[C@@H](OC)/C=C/C=C(\C)C(=O)NC(=CC1=O)C2=O | – | – | – | – | – | – | – | – | – | – | – | 110 | 105 | 102 | 108 | 97.2 | 95.8 | 99.7 | 114 | 72.2 | 5.54 | 4.75 | 122 | 115 | 125 | 127 | 117 | 123 | 101 | 115 | 100 | 6.39 | 5.09 |
| COCCOc1nc(-c2ccc(Cl)c(Cl)c2)n(-c2ccc(NC(=O)CCl)cc2)n1 | 80 | 106 | 98.5 | 89.9 | 102 | 85.7 | 95.4 | 88 | 83.4 | 79.1 | 80.6 | 92.2 | 91.4 | 96.4 | 91 | 95.1 | 102 | 94.2 | 81.6 | 80.2 | 80.2 | 85.1 | 85.5 | 95.4 | 87.5 | 103 | 104 | 103 | 94.2 | 97.6 | 83.6 | 83.1 | 84.6 |
| CC/1=C(/C(CC(=O)N1)C2=CC=C(C=C2)C(F)(F)F)C(=O)NC3=C(F)C=C4[NH]N=CC4=C3 (stereo not given) | 102 | 101 | 94.2 | 94.7 | 84.3 | 92.8 | 108 | 92 | 108 | 31.9 | 31.8 | 97.9 | 80.9 | 102 | 84 | 96.8 | 97.1 | 100 | 96.7 | 109 | 28.2 | 32 | 81.9 | 94.4 | 92.3 | 104 | 91.8 | 89.4 | 95.9 | 89.3 | 114 | 29.9 | 26.5 |
| Nc1nnc(-c2cccc(Cl)c2Cl)c(N)n1 | 71.7 | 74.5 | 85.2 | 13.1 | 97.6 | 96.7 | 104 | 99.1 | 99.9 | 90.4 | 89.7 | 88.5 | 88.1 | 88.2 | 16.1 | 92.1 | 97.5 | 103 | 101 | 101 | 107 | 113 | 80.7 | 80 | 98.9 | 21.9 | 96.6 | 92.1 | 96.5 | 103 | 105 | 115 | 92.4 |
| O=C(O)CCn1c2c(c3ccccc31)C[C@H](N[S+](=O)([O-])c1ccc(F)cc1)CC2 | 120 | 102 | 118 | 109 | 122 | 108 | 86.7 | 117 | 104 | 107 | 96.4 | 112 | 119 | 119 | 123 | 122 | 120 | 90.6 | 106 | 128 | 120 | 124 | 112 | 115 | 112 | 110 | 111 | 106 | 96.8 | 126 | 118 | 107 | 104 |
| COC/1=C/C=C2\C(=C/C1=O)[C@H](CCC3=CC(=C(OC)C(=C23)OC)OC)NC(C)=O | 19 | 19.2 | 15.9 | 15.9 | 12.3 | 8.3 | 5.66 | 6.98 | 5.01 | 4.81 | 2.96 | 20.9 | 20.5 | 21.6 | 21.8 | 10.7 | 8.08 | 7.02 | 5.24 | 4.72 | 4.63 | 2.48 | 32.1 | 25.8 | 26.1 | 23.7 | 18.7 | 14.5 | 11 | 11.5 | 10.1 | 10 | 3.47 |
| CCCCC(C=O)NC(=O)C(CC(C)C)NC(=O)OCc1ccccc1 (stereo not given) | 110 | 87.2 | 94.2 | 102 | 110 | 88.7 | 91.8 | 90.9 | 84.3 | 85.1 | 52.6 | 93.8 | 82.8 | 78.1 | 89.1 | 86.2 | 66.2 | 96.7 | 94.5 | 84.8 | 71.1 | 47.9 | 93.8 | 99.8 | 90.6 | 105 | 98.5 | 58 | 99.1 | 102 | 92.1 | 81.1 | 57 |

Reference: the supplement of paper PMC11451515
